Test results taken from ChEMBL document CHEMBL5244219, “Recent developments of quinolone-based derivatives and their activities against Escherichia coli” (Eur J Med Chem, 2018).
Values after ≈ are worked out from the molar mass of the structure shown.

system: Escherichia coli; assay: Antibacterial activity against Escherichia coli NIHJ JC-2 assessed as bacterial growth inhibition; assay type: functional

| SMILES | MIC |
| --- | --- |
| NC1CCN(c2c(F)c3c(c(=O)c(C(=O)O)cn3C3CC3)c3[nH]cnc23)C1 (configuration not stated) | 0.025 µg/mL (≈ 0.0673 µM) |
| NC1CCN(c2c(F)c3c(c(=O)c(C(=O)O)cn3C3CC3)c3[nH]nnc23)C1 (configuration not stated) | 0.025 µg/mL (≈ 0.0671 µM) |
| NCC1CCN(c2cc3c(c(=O)c(C(=O)O)cn3C3CC3)c3[nH]cnc23)C1 (configuration not stated) | 0.025 µg/mL (≈ 0.068 µM) |
| NCC1CCN(c2c(F)c3c(c(=O)c(C(=O)O)cn3C3CC3)c3[nH]cnc23)C1 (configuration not stated) | 0.025 µg/mL (≈ 0.0649 µM) |
| O=C(O)c1cn(C2CC2)c2c(F)c(N3CCNCC3)c3nn[nH]c3c2c1=O | 0.025 µg/mL (≈ 0.0671 µM) |
| NC1CCN(c2c(Cl)c3c(c(=O)c(C(=O)O)cn3C3CC3)c3[nH]nnc23)C1 (configuration not stated) | 0.025 µg/mL (≈ 0.0643 µM) |
| CN1CCN(c2c(F)c3c(c(=O)c(C(=O)O)cn3C3CC3)c3[nH]nnc23)CC1 | 0.025 µg/mL (≈ 0.0647 µM) |
| O=C(O)c1cn(C2CC2)c2c(F)c(N3CCNCC3)c3nc[nH]c3c2c1=O | 0.025 µg/mL (≈ 0.0673 µM) |
| O=C(O)c1cn(C2CC2)c2c(Cl)c(N3CCNCC3)c3nc[nH]c3c2c1=O | 0.025 µg/mL (≈ 0.0645 µM) |
| NCC1CCN(c2c(F)c3c(c(=O)c(C(=O)O)cn3C3CC3)c3[nH]nnc23)C1 (configuration not stated) | 0.025 µg/mL (≈ 0.0647 µM) |
| C[C@@H]1CN(c2c(F)c(N)c3c(=O)c(C(=O)O)cn(C4CC4)c3c2F)C[C@H](C)N1 [SPARFLOXACIN] | 0.0125 µg/mL (≈ 0.0319 µM) |
| NC1CCN(c2cc3c(c(=O)c(C(=O)O)cn3C3CC3)c3[nH]cnc23)C1 (configuration not stated) | 0.025 µg/mL (≈ 0.0707 µM) |
| CN1CCN(c2c(Cl)c3c(c(=O)c(C(=O)O)cn3C3CC3)c3[nH]nnc23)CC1 | 0.025 µg/mL (≈ 0.0621 µM) |
| CN1CCN(c2c(Cl)c3c(c(=O)c(C(=O)O)cn3C3CC3)c3[nH]cnc23)CC1 | 0.025 µg/mL (≈ 0.0622 µM) |
| CN1CCN(c2c(F)c3c(c(=O)c(C(=O)O)cn3C3CC3)c3[nH]cnc23)CC1 | 0.025 µg/mL (≈ 0.0649 µM) |
| O=C(O)c1cn(C2CC2)c2cc(N3CCNCC3)c3nc[nH]c3c2c1=O | 0.025 µg/mL (≈ 0.0707 µM) |
| NC1CCN(c2c(Cl)c3c(c(=O)c(C(=O)O)cn3C3CC3)c3[nH]cnc23)C1 (configuration not stated) | 0.025 µg/mL (≈ 0.0645 µM) |

Second part, the molecule after the results:

| MIC | SMILES |
| --- | --- |
| 0.025 µg/mL (≈ 0.068 µM) | CN1CCN(c2cc3c(c(=O)c(C(=O)O)cn3C3CC3)c3[nH]cnc23)CC1 |
| 0.025 µg/mL (≈ 0.0679 µM) | CN1CCN(c2cc3c(c(=O)c(C(=O)O)cn3C3CC3)c3[nH]nnc23)CC1 |

system: Escherichia coli; assay: Antibacterial activity against Escherichia coli assessed as bacterial growth inhibition incubated for 24 hrs by agar streak dilution method; assay type: functional

| MIC | SMILES |
| --- | --- |
| 2 µg/mL (≈ 3.43 µM) | CCn1cc(C(=O)O)c(=O)c2cc(F)c(N3CCN(C4SCC(=O)N4c4nc5ccc(OC)cc5s4)CC3)cc21 (configuration not stated) |
| 2 µg/mL (≈ 3.5 µM) | CCn1cc(C(=O)O)c(=O)c2cc(F)c(N3CCN(C4SCC(=O)N4c4nc5ccc(F)cc5s4)CC3)cc21 (configuration not stated) |
| 2 µg/mL (≈ 3.16 µM) | CCn1cc(C(=O)O)c(=O)c2cc(F)c(N3CCN(C4SCC(=O)N4c4nc5ccc(Br)cc5s4)CC3)cc21 (configuration not stated) |
| 2 µg/mL (≈ 3.43 µM) | O=C(O)c1cn(C2CC2)c2cc(N3CCN(C4SCC(=O)N4c4nc5ccc(F)cc5s4)CC3)c(F)cc2c1=O (configuration not stated) |
| 2 µg/mL (≈ 3.39 µM) | N#Cc1ccc2nc(N3C(=O)CSC3N3CCN(c4cc5c(cc4F)c(=O)c(C(=O)O)cn5C4CC4)CC3)sc2c1 (configuration not stated) |
| 2 µg/mL (≈ 3.34 µM) | CCn1cc(C(=O)O)c(=O)c2cc(F)c(N3CCN(C4SCC(=O)N4c4nc5ccc([N+](=O)[O-])cc5s4)CC3)cc21 (configuration not stated) |
| 2 µg/mL (≈ 3.35 µM) | CCOc1ccc2nc(N3C(=O)CSC3N3CCN(c4cc5c(cc4F)c(=O)c(C(=O)O)cn5CC)CC3)sc2c1 (configuration not stated) |
| 2 µg/mL (≈ 3.36 µM) | COc1ccc2nc(N3C(=O)CSC3N3CCN(c4cc5c(cc4F)c(=O)c(C(=O)O)cn5C4CC4)CC3)sc2c1 (configuration not stated) |
| 2 µg/mL (≈ 3.1 µM) | O=C(O)c1cn(C2CC2)c2cc(N3CCN(C4SCC(=O)N4c4nc5ccc(Br)cc5s4)CC3)c(F)cc2c1=O (configuration not stated) |
| 2 µg/mL (≈ 3.27 µM) | CCn1cc(C(=O)O)c(=O)c2cc(F)c(N3CCN(C4SCC(=O)N4c4nc5ccc(NC(C)=O)cc5s4)CC3)cc21 (configuration not stated) |
| 2 µg/mL (≈ 3.21 µM) | CC(=O)Nc1ccc2nc(N3C(=O)CSC3N3CCN(c4cc5c(cc4F)c(=O)c(C(=O)O)cn5C4CC4)CC3)sc2c1 (configuration not stated) |
| 2 µg/mL (≈ 3.46 µM) | CCn1cc(C(=O)O)c(=O)c2cc(F)c(N3CCN(C4SCC(=O)N4c4nc5ccc(C#N)cc5s4)CC3)cc21 (configuration not stated) |
| 2 µg/mL (≈ 3.28 µM) | O=C(O)c1cn(C2CC2)c2cc(N3CCN(C4SCC(=O)N4c4nc5ccc([N+](=O)[O-])cc5s4)CC3)c(F)cc2c1=O (configuration not stated) |
| 2 µg/mL (≈ 3.28 µM) | CCOc1ccc2nc(N3C(=O)CSC3N3CCN(c4cc5c(cc4F)c(=O)c(C(=O)O)cn5C4CC4)CC3)sc2c1 (configuration not stated) |

system: Escherichia coli; assay: Antibacterial activity against Escherichia coli NCDC 134 assessed as bacterial growth inhibition; assay type: functional

| SMILES | MIC |
| --- | --- |
| O=C(N/N=C/c1ccc([N+](=O)[O-])cc1)c1cn(C2CC2)c2cc(N/N=C/c3ccc([N+](=O)[O-])cc3)c(F)cc2c1=O | > 64 µg/mL |
| CCCN(CCC)Cc1cn(-c2cc3c(cc2F)c(=O)c(C(=O)NO)cn3C2CC2)nn1 | > 64 µg/mL |
| CC(C)NCc1cn(-c2cc3c(cc2F)c(=O)c(C(=O)NO)cn3C2CC2)nn1 | > 64 µg/mL |
| O=C(N/N=C/c1ccc2c(c1)OCO2)c1cn(C2CC2)c2cc(N/N=C/c3ccc4c(c3)OCO4)c(F)cc2c1=O | > 64 µg/mL |

Continued, values first:

| MIC | SMILES |
| --- | --- |
| > 64 µg/mL | O=C(NO)c1cn(C2CC2)c2cc(-n3cc(CN4CCOCC4)nn3)c(F)cc2c1=O |
| 6 µg/mL (≈ 10.4 µM) | COc1c(N2CCN(CC(=O)Nc3nc4ccc(C)cc4s3)C(C)C2)c(F)cc2c(=O)c(C(=O)O)cn(C3CC3)c12 (configuration not stated) |
| 6 µg/mL (≈ 10.6 µM) | O=C(CN1CCN(c2cc3c(cc2F)c(=O)c(C(=O)O)cn3C2CC2)CC1)Nc1nc2ccc([N+](=O)[O-])cc2s1 |
| > 64 µg/mL | COc1cc(/C=N/NC(=O)c2cn(C3CC3)c3cc(N4CCNCC4)c(F)cc3c2=O)cc(OC)c1OC |
| 6 µg/mL (≈ 11.4 µM) | CCn1cc(C(=O)O)c(=O)c2cc(F)c(N3CCN(CC(=O)Nc4nc5ccc(F)cc5s4)CC3)cc21 |
